Measurements as given in EPA's CvTdb concentration-time database.

Experiments:
Mouse [1] = assay: concentration in plasma after dosing; conditions: 2 h; dosed: 2-Hydroxy-4-methoxybenzophenone; 250 mg/kg; oral; Male; B6C3F1
Mouse [2] = assay: concentration in plasma after dosing; conditions: 3 h; dosed: 2-Hydroxy-4-methoxybenzophenone; 250 mg/kg; oral; Female; B6C3F1
Rat [3] = assay: concentration in plasma after dosing; conditions: dosed: 2-Hydroxy-4-methoxybenzophenone, 8 mg/kg, iv, Female, F344
Mouse [4] = assay: concentration in plasma after dosing; conditions: 3 h; dosed: 2-Hydroxy-4-methoxybenzophenone; 50 mg/kg; iv; Male; B6C3F1
Rat [5] = assay: concentration in plasma after dosing; conditions: 0.25 h; dosed: 2-Hydroxy-4-methoxybenzophenone; 500 mg/kg; oral; Female; F344
Mouse [6] = assay: concentration in plasma after dosing; conditions: 0.25 h; dosed: 2-Hydroxy-4-methoxybenzophenone; 500 mg/kg; oral; Female; B6C3F1
Mouse [7] = assay: concentration in plasma after dosing; conditions: 2.5 min; dosed: 2-Hydroxy-4-methoxybenzophenone; 250 mg/kg; oral; Male; B6C3F1
Mouse [8] = assay: concentration in plasma after dosing; conditions: 0.25 h; dosed: 2-Hydroxy-4-methoxybenzophenone; 50 mg/kg; iv; Male; B6C3F1
Rat [9] = assay: concentration in plasma after dosing; conditions: 5 min; dosed: Nitrite; 80 mg/kg; oral; Female; F344
Rat [10] = assay: concentration in plasma after dosing; conditions: dosed: Nitrite, 80 mg/kg, oral, Female, F344
Rat [11] = assay: concentration in plasma after dosing; conditions: 2 min; dosed: Nitrite; 80 mg/kg; oral; Female; F344
Rat [12] = assay: concentration in plasma after dosing; conditions: 0.5 h; dosed: Nitrite; 40 mg/kg; oral; Female; F344
Rat [13] = assay: concentration in liver after dosing; conditions: 3 h; dosed: Fluorotelomer alcohol 8+2; 80 mg/kg; oral; Female; Harlan Sprague Dawley
Rat [14] = assay: concentration in kidney after dosing; conditions: 12 h; dosed: Fluorotelomer alcohol 8+2; 80 mg/kg; oral; Female; Harlan Sprague Dawley
Rat [15] = assay: concentration in liver after dosing; conditions: 6 h; dosed: Perfluorooctanoic acid; 12 mg/kg; oral; Male; Harlan Sprague Dawley
Rat [16] = assay: concentration in liver after dosing; conditions: 24 h; dosed: Perfluorooctanoic acid; 12 mg/kg; oral; Male; Harlan Sprague Dawley
Rat [17] = assay: concentration in plasma after dosing; conditions: dosed: 678-39-7, 40 mg/kg, iv, Female, Harlan Sprague-Dawley
Rat [18] = assay: concentration in plasma after dosing; conditions: dosed: 678-39-7, 40 mg/kg, iv, Male, F344
Rat [19] = assay: concentration in liver after dosing; conditions: 12 h; dosed: Perfluorooctanoic acid; 80 mg/kg; oral; Female; Harlan Sprague Dawley
Rat [20] = assay: concentration in kidney after dosing; conditions: 3 h; dosed: Fluorotelomer alcohol 8+2; 80 mg/kg; oral; Female; Harlan Sprague Dawley
Rat [21] = assay: concentration in plasma after dosing; conditions: dosed: Fluorotelomer alcohol 8+2, 12 mg/kg, oral, Male, Harlan Sprague Dawley
Rat [22] = assay: concentration in kidney after dosing; conditions: 24 h; dosed: Perfluorooctanoic acid; 12 mg/kg; oral; Male; Harlan Sprague Dawley
Rat [23] = assay: concentration in liver after dosing; conditions: 6 h; dosed: Perfluorooctanoic acid; 80 mg/kg; oral; Female; Harlan Sprague Dawley
Rat [24] = assay: concentration in plasma after dosing; conditions: dosed: 678-39-7, 12 mg/kg, iv, Male, F344
Rat [25] = assay: concentration in kidney after dosing; conditions: 3 h; dosed: Perfluorooctanoic acid; 12 mg/kg; oral; Male; Harlan Sprague Dawley
Rat [26] = assay: concentration in plasma after dosing; conditions: dosed: Fluorotelomer alcohol 8+2, 12 mg/kg, oral, Male, Harlan Sprague Dawley; remark: listed apart in the source
Rat [27] = assay: concentration in kidney after dosing; conditions: 48 h; dosed: Perfluorooctanoic acid; 80 mg/kg; oral; Female; Harlan Sprague Dawley
Rat [28] = assay: concentration in kidney after dosing; conditions: 0.5 h; dosed: Potassium Perfluorobutane Sulfonate; 20 mg/kg; oral; Female; Harlan Sprague Dawley
Rat [29] = assay: concentration in plasma after dosing; conditions: 0.25 h; dosed: Potassium Perfluorobutane Sulfonate; 4 mg/kg; iv; Male; F344
Rat [30] = assay: concentration in plasma after dosing; conditions: dosed: Potassium Perfluorobutane Sulfonate, 4 mg/kg, oral, Male, Harlan Sprague Dawley
rat [31] = assay: concentration in blood after dosing (ugEq/g tissue); conditions: dosed: benzo[a]pyrene, iv, male, Wistar

COc1ccc(C(=O)c2ccccc2)c(O)c1 [2-Hydroxy-4-methoxybenzophenone]
Conditions | concentration in plasma [ng/mL]
Mouse [1] | 55.1
Mouse [2] | 35.5
Mouse [4] | 218
Mouse [6] | 1230
Mouse [7] | 18.2
Mouse [8] | 7110
Rat [5] | 619

Rat [3]
Conditions | concentration in plasma [ng/mL]
2 h | 111
10 min | 2560

O=N[O-] [Nitrite]
Conditions | concentration in plasma [ng/mL]
Rat [9] | 18700
Rat [11] | 7000
Rat [12] | 6500

Rat [10]
Conditions | concentration in plasma [ng/mL]
1 h | 21600
2 h | 13000

O=C(O)C(F)(F)C(F)(F)C(F)(F)C(F)(F)C(F)(F)C(F)(F)C(F)(F)F [Perfluorooctanoic acid]
Conditions | concentration in kidney [ng/g] | concentration in liver [ng/g]
Rat [13] | – | 2170
Rat [14] | 626 | –
Rat [15] | – | 57200
Rat [16] | – | 62500
Rat [19] | – | 59900
Rat [20] | 2070 | –
Rat [22] | 29700 | –
Rat [23] | – | 160000
Rat [25] | 23700 | –
Rat [27] | 703 | –

Conditions | concentration in plasma [ng/mL]
Rat [17], 1 h | 2280
Rat [17], 24 h | 58.8
Rat [18], 0.5 h | 1400
Rat [18], 9 h | 716
Rat [21], 48 h | 657
Rat [21], 192 h | 424
Rat [24], 3 h | 485
Rat [24], 5 min | 58.3
Rat [26], 0.25 h | 27.2
Rat [26], 6 h | 635

O=S(=O)([O-])C(F)(F)C(F)(F)C(F)(F)C(F)(F)F.[K+] [Potassium Perfluorobutane Sulfonate]
Conditions | concentration in kidney [ng/g] | concentration in plasma [ng/mL]
Rat [28] | 23200 | –
Rat [29] | – | 17900

Rat [30]
Conditions | concentration in plasma [ng/mL]
0.75 h | 14200
12 h | 2550

c1ccc2c(c1)cc1ccc3cccc4ccc2c1c34 [benzo[a]pyrene]
concentration in blood, rat [31]
Conditions | 2 mg/kg | 6 mg/kg | 15 mg/kg
0.5 h | 0.66 | 2.42 | 13.8
0.75 h | 0.47 | 1.99 | 10.6
1 h | 0.42 | 1.72 | 8.52
1.5 h | 0.17 | 0.5 | 7.16
2 h | 0.35 | 0.14 | 3.93
3 h | – | 0.03 | 1.86
4 h | – | – | 0.19
5 h | – | 0.01 | 0.09
5 min | 2.64 | 4.66 | 28.8
6 h | – | – | 0.05
8 h | – | – | 0.02
10 min | 1.85 | 5 | 29.8
20 min | 1.2 | 3.78 | 15.9
24 h | – | – | 0.015
32 h | – | – | 0.002
